Data: patent US20100267561A1, “HERBICIDAL PYRIDAZINONE DERIVATIVES” (priority 2007, published 2010)

Columns and labels:
Assay type in all cases: in vivo
[1] = system: pigweed (Amaranthus retroflexus); test: Test B pre-/postemergence plant response; conditions: for Pigweed plant response rating: 8 g ai/ha
Method in brief: (§1)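 Visual scoring from 0 (no effect) to 100 (complete control) against untreated controls was done 13 to 15 days after greenhouse treatment. Chemicals were formulated in a surfactant-containing non-phytotoxic solvent and applied to soil preemergence or to 1- to 4-leaf (2-18 cm) plants postemergence.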

[2] = system: Italian ryegrass (Lolium multiflorum); test: Test B pre-/postemergence plant response; conditions: for Ryegrass, Italian plant response rating: 8 g ai/ha
Method in brief: as §1

[3] = system: common (oilseed) sunflower (Helianthus annuus); test: Test B pre-/postemergence plant response; conditions: Preemergence
Method in brief: as §1

[4] = system: wheat (Triticum aestivum); test: Test B pre-/postemergence plant response; conditions: for Wheat plant response rating: 8 g ai/ha
Method in brief: as §1

[5] = system: morningglory (Ipomoea coccinea); test: Test B pre-/postemergence plant response; conditions: for Morningglory plant response rating: 8 g ai/ha
Method in brief: as §1

[6] = system: giant foxtail (Setaria faberii); test: Test B pre-/postemergence plant response; conditions: for Foxtail, Giant plant response rating: 8 g ai/ha
Method in brief: as §1

[7] = system: lambsquarters (Chenopodium album); test: Test B pre-/postemergence plant response; conditions: for Lambsquarters plant response rating: 8 g ai/ha
Method in brief: as §1

[8] = system: surinam grass (Brachiaria decumbens); test: Test B pre-/postemergence plant response; conditions: for Surinam Grass plant response rating: 8 g ai/ha
Method in brief: as §1

[9] = system: bermudagrass (Cynodon dactylon); test: Test B pre-/postemergence plant response; conditions: for Bermudagrass plant response rating: 8 g ai/ha
Method in brief: as §1

[10] = system: downy bromegrass (Bromus tectorum); test: Test B pre-/postemergence plant response; conditions: for Bromegrass, Downy plant response rating: 8 g ai/ha
Method in brief: as §1

soybean (Glycine max) = test: Test B pre-/postemergence plant response; conditions: for Soybean plant response rating: 8 g ai/ha
Method in brief: as §1

[11] = system: canarygrass (Phalaris minor); test: Test B postemergence plant response; conditions: for Plant response rating, Canarygrass: Postemergence, scale 0 to 100
Method in brief: (§2)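 Visual injury score from 0 (none) to 100 (complete control) versus controls, taken 13 to 15 days after treatment in the greenhouse; chemicals applied postemergence, as formulated, to plants of 1- to 4-leaf stage (2 to 18 cm tall); dash denotes no test result.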

[12] = system: windgrass (Apera spica-venti); test: Test B postemergence plant response; conditions: for Plant response rating, Windgrass: Postemergence
Method in brief: as §2

[13] = system: chickweed (Stellaria media); test: Test B postemergence plant response; conditions: for Plant response rating, Chickweed: Postemergence
Method in brief: as §2

[14] = system: winter barley (Hordeum vulgare); test: Test B postemergence plant response; conditions: for Plant response rating, Barley: Postemergence, scale 0 to 100, 0 no effect, 100 complete control
Method in brief: as §2

[15] = Postemergence, 16 g ai/ha, scale 0 to 100
[16] = Postemergence, 31 g ai/ha, scale 0 to 100
[17] = Postemergence, 62 g ai/ha, scale 0 to 100, 0 no effect, 100 complete control
[18] = Preemergence, 16 g ai/ha, scale 0 to 100 (0 no effect, 100 complete control)
[19] = Preemergence, 31 g ai/ha, scale 0 to 100 (0 no effect, 100 complete control)
[20] = Preemergence, 62 g ai/ha, scale 0 to 100
[21] = Preemergence, 62 g ai/ha, 0 to 100 scale, 0 no effect, 100 complete control
[22] = Preemergence, 31 g ai/ha, 0 to 100 scale, 0 no effect, 100 complete control
[23] = 8 g ai/ha, postemergence, 0-100 scale
[24] = 62 g ai/ha, scale 0 to 100, 0 no effect, 100 complete control

With `Cc1cc(-c2ccc(Cl)cc2)nn1-c1c(OC(=O)c2ccccc2)cnn(C)c1=O` [Compound 48] the “Pigweed plant response rating” value ([1]; postemergence, 0-100 scale) was 0, the “Plant response rating, Pigweed” value [1, 15] was 0 and the “Plant response rating, Pigweed” value [1, 16] was 0. For the same compound, the “Plant response rating, Pigweed” value [1, 17] was 0, the “Plant response rating, Pigweed” value [1, 18] was 0 and the “Plant response rating, Pigweed” value [1, 19] was 0. For the same compound, the “Plant response rating, Pigweed” value [1, 20] was 0, the “Pigweed plant response rating” value ([1]; Preemergence, scale 0 to 100) was 0 and the “Ryegrass, Italian plant response rating” value ([2]; postemergence, 0-100 scale) was 40. The “Plant response rating, Ryegrass, Italian” value [2, 15] was 90, the “Plant response rating, Ryegrass, Italian” value [2, 16] was 100 and the “Plant response rating, Ryegrass, Italian” value [2, 17] was 100. The “Plant response rating, Ryegrass, Italian” value [2, 18] was 85, the “Plant response rating, Ryegrass, Italian” value [2, 19] was 100 and the “Plant response rating, Ryegrass, Italian” value [2, 20] was 100. The “Ryegrass, Italian plant response rating” value ([2]; Preemergence, scale 0 to 100) was 85, the “Plant response rating, Sunflower” value ([3]; 16 g ai/ha, scale 0 to 100 (0 no effect, 100 complete control)) was 0 and the “Plant response rating, Sunflower” value ([3]; 31 g ai/ha, scale 0 to 100 (0 no effect, 100 complete control)) was 0. For the same compound, the “Plant response rating, Sunflower” value ([3]; 62 g ai/ha, scale 0 to 100) was 0, the “Sunflower plant response rating” value ([3]; 8 g ai/ha, scale 0 to 100) was 0 and the “Wheat plant response rating” value ([4]; postemergence, 0-100 scale) was 0. For the same compound, the “Plant response rating, Wheat” value [4, 15] was 50, the “Plant response rating, Wheat” value [4, 16] was 95 and the “Plant response rating, Wheat” value [4, 17] was 98. The “Plant response rating, Wheat” value [4, 18] was 0, the “Plant response rating, Wheat” value [4, 19] was 5 and the “Plant response rating, Wheat” value [4, 21] was 60. The “Wheat plant response rating” value ([4]; Preemergence, scale 0 to 100) was 0, the “Morningglory plant response rating” value ([5]; postemergence, 0-100 scale) was 0 and the “Plant response rating, Morningglory” value [5, 15] was 0. For the same compound, the “Plant response rating, Morningglory” value [5, 16] was 0, the “Plant response rating, Morningglory” value [5, 17] was 0 and the “Plant response rating, Morningglory” value [5, 18] was 0. The “Plant response rating, Morningglory” value [5, 19] was 0, the “Plant response rating, Morningglory” value [5, 20] was 0 and the “Morningglory plant response rating” value ([5]; Preemergence, scale 0 to 100) was 0. For the same compound, the “Foxtail, Giant plant response rating” value ([6]; postemergence, 0-100 scale) was 85, the “Plant response rating, Foxtail, Giant” value [6, 15] was 95 and the “Plant response rating, Foxtail, Giant” value [6, 16] was 100. The “Plant response rating, Foxtail, Giant” value [6, 17] was 100, the “Plant response rating, Foxtail, Giant” value [6, 18] was 0 and the “Plant response rating, Foxtail, Giant” value [6, 22] was 0. The “Plant response rating, Foxtail, Giant” value [6, 20] was 0, the “Foxtail, Giant plant response rating” value ([6]; Preemergence, scale 0 to 100) was 0 and the “Lambsquarters plant response rating” value ([7]; postemergence, 0-100 scale) was 0. The “Plant response rating, Lambsquarters” value [7, 15] was 0, the “Plant response rating, Lambsquarters” value [7, 16] was 0 and the “Plant response rating, Lambsquarters” value [7, 17] was 0. For the same compound, the “Plant response rating, Lambsquarters” value [7, 18] was 0, the “Plant response rating, Lambsquarters” value [7, 22] was 0 and the “Plant response rating, Lambsquarters” value [7, 20] was 0. The “Lambsquarters plant response rating” value ([7]; Preemergence, scale 0 to 100) was 0, the “Surinam Grass plant response rating” value ([8]; postemergence, 0-100 scale) was 75 and the “Plant response rating, Surinam Grass” value [8, 15] was 90. For the same compound, the “Plant response rating, Surinam Grass” value [8, 16] was 100, the “Plant response rating, Surinam Grass” value [8, 17] was 100 and the “Plant response rating, Surinam Grass” value [8, 18] was 40. The “Plant response rating, Surinam Grass” value [8, 19] was 65, the “Plant response rating, Surinam Grass” value [8, 21] was 75 and the “Surinam Grass plant response rating” value ([8]; Preemergence, scale 0 to 100) was 0. For the same compound, the “Bermudagrass plant response rating” value ([9]; postemergence, 0-100 scale) was 65, the “Plant response rating, Bermudagrass” value [9, 15] was 98 and the “Plant response rating, Bermudagrass” value [9, 16] was 100. The “Plant response rating, Bermudagrass” value [9, 17] was 100, the “Bermudagrass plant response rating” value ([9]; Preemergence, scale 0 to 100 (0 no effect, 100 complete control)) was 0 and the “Plant response rating, Bermudagrass” value [9, 18] was 0. For the same compound, the “Plant response rating, Bermudagrass” value [9, 22] was 0, the “Plant response rating, Bermudagrass” value [9, 20] was 0 and the “Bromegrass, Downy plant response rating” value ([10]; postemergence, 0-100 scale) was 5. The “Plant response rating, Bromegrass, Downy” value [10, 15] was 50, the “Plant response rating, Bromegrass, Downy” value [10, 16] was 60 and the “Plant response rating, Bromegrass, Downy” value [10, 17] was 90. The “Plant response rating, Bromegrass, Downy” value [10, 18] was 0, the “Plant response rating, Bromegrass, Downy” value [10, 22] was 70 and the “Plant response rating, Bromegrass, Downy” value [10, 20] was 80. For the same compound, the “Bromegrass, Downy plant response rating” value ([10]; Preemergence, scale 0 to 100) was 0, the “Soybean plant response rating” value (soybean (Glycine max); postemergence, 0-100 scale) was 0 and the “Plant response rating, Soybean” value (soybean (Glycine max); [15]) was 0. The “Plant response rating, Soybean” value (soybean (Glycine max); [16]) was 0, the “Plant response rating, Soybean” value (soybean (Glycine max); [17]) was 0 and the “Plant response rating, Soybean” value (soybean (Glycine max); [18]) was 0. For the same compound, the “Plant response rating, Soybean” value (soybean (Glycine max); [19]) was 0, the “Plant response rating, Soybean” value (soybean (Glycine max); [20]) was 0 and the “Soybean plant response rating” value (soybean (Glycine max); Preemergence, scale 0 to 100) was 0. For the same compound, the “Canarygrass plant response rating” value [11, 23] was 0, the “Plant response rating, Canarygrass” value ([11]; 16 g ai/ha) was 0 and the “Plant response rating, Canarygrass” value ([11]; 31 g ai/ha) was 90. The “Windgrass plant response rating” value [12, 23] was 0, the “Plant response rating, Windgrass” value ([12]; 16 g ai/ha, scale 0 to 100) was 40 and the “Plant response rating, Windgrass” value ([12]; 31 g ai/ha, scale 0 to 100) was 60. For the same compound, the “Plant response rating, Windgrass” value [12, 24] was 80, the “Chickweed plant response rating” value [13, 23] was 0 and the “Plant response rating, Chickweed” value ([13]; 16 g ai/ha, scale 0 to 100) was 0. For the same compound, the “Plant response rating, Chickweed” value ([13]; 31 g ai/ha, scale 0 to 100) was 0, the “Plant response rating, Chickweed” value [13, 24] was 0 and the “Barley plant response rating” value [14, 23] was 0. The “Plant response rating, Barley” value ([14]; 16 g ai/ha) was 0 and the “Plant response rating, Barley” value ([14]; 62 g ai/ha) was 10.
